For data set [1], the system named is microbial contaminants on the seeds. The note with it: loblolly pine, 30% H2O2 15 minutes; for contamination of whole seed: TSYG broth at 30° C. As for the experimental part:
Methods: The following disinfection treatment was used for loblolly pine seed: • (1) Seed was placed in a tea strainer (about 100 seed/strainer) and soaked in deionized water for one hour with agitation; • (2) The seed in the tea strainer was soaked in a 10% solution of Liquinox (VWR Scientific) for one hour with agitation; • (3) The seed in the tea strainer was soaked in 30% H2O2 on a rotary shaker in a fume hood for 15 minutes; • (4) The seed in the tea strainer was rinsed 8 times for 10 minutes each in sterile water in a laminar flow hood; • (5) The seed in the tea strainer was hydrated in sterile water for 24 hours in a laminar flow hood; and • (6) The seed in the tea strainer was rinsed three times with sterile water for 10 minutes each.
After disinfection and hydration, seed were removed from the tea strainers and placed on a sterile Petri plate. Seed were individually removed with surface-sterilized latex gloves, cracked using autoclaved Vice-Grips, and placed in sterile quadrant Petri plates (2 seeds/quadrant) containing a drop of sterile water to avoid dehydration before dissection. After dissection, 50 whole seed and 50 dissected embryos were incubated in TSYG broth (Trypticase Soy Broth 30 g/l, Yeast Extract 5 g/l, Glucose 10 g/l, and—for a solid Petri plate or agar slant—Agar 15 g/l) and examined on a daily basis for signs of contamination during an eight week incubation period at 30° C.

For data set [2] the test system is unchanged. Briefly: Contamination of dissected embryos after disinfection of loblolly pine seed (Example 5). The note with it: treatment 1: 30% hydrogen peroxide 15 min, vacuum, day 24 after dissection. The class given is cell-based. As for the experimental part: (§1) Methods: The first treatment was identical to the first treatment (hydrogen peroxide) described in EXAMPLE 4, and the second treatment was identical to the fifth treatment ([…]) described in EXAMPLE 4. Seed coats were cracked and removed, and the de-coated seeds were placed in sterile glass Petri plates (one plate/treatment) containing wet filter paper until dissection. Dissection was performed in quadrant Petri plates. A maximum of four seed were dissected per quadrant. […] Organ lengths and normalcy were assessed after 24 days on the medium.

The subject of the next data set is loblolly pine seed. Briefly: Germination of dissected embryos on medium 185 (normalcy, organ lengths, epicotyl presence) after disinfection of loblolly pine seed (Example 5). The note with it: treatment 1: 30% hydrogen peroxide 15 min, vacuum, day 24 after dissection. On the procedure: as §1

Where two headings read alike, the source gives them in different places.

As for `OO` [hydrogen peroxide], in data set [1] (after eight weeks of incubation), the “contamination of whole seed” value worked out at 68%. Also, the “contamination of whole seed” value in data set [1] (by the third day of incubation, 4 out of 50 whole seed) was 8%. The “contamination of dissected embryos” value in data set [1] (TSYG broth, eight week incubation at 30° C.) was “no contamination”. Moreover, in data set [2], the “Contamination (%)” value stood at 0%. In the data set on loblolly pine seed, the “Cotyledon Length (cm)” value was determined as 0.7 cm, the “Epicotyl Presence (%)” value is recorded as 65.7%, the “Hypocotyl Length (cm)” value was 1.2 cm and the “Normalcy (%)” value came to 85.7%. For the same compound, the “Radicle Length (cm)” value in the data set with loblolly pine seed stood at 3.4 cm.

For the origin of these results see patent US20050289665A1, “Method for disinfecting seed” (priority 2004, published 2005).
